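Each compound was tested at five concentrations against cells in 96-well plates for 48 hours. The concentration for 50% growth inhibition is given as GI50. TGI is the concentration that stops growth completely.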
Legend:
Assay in all cases: NCI anticancer screen, dose series, 48 h
[1] = test system: BT-549 breast
[2] = test system: DU-145 prostate
[3] = test system: MDA-MB-231 breast
[4] = test system: MDA-N
[5] = test system: NCI-H23 lung
[6] = test system: SF-539 CNS
[7] = test system: T-47D breast
[8] = test system: UACC-62 melanoma
[9] = test system: U251 CNS
[10] = test system: RXF 393 renal

Compound	TGI [1] [µM]	TGI [2] [µM]	TGI [3] [µM]	TGI [4] [µM]	TGI [5] [µM]	TGI [6] [µM]	TGI [7] [µM]	TGI [8] [µM]	GI50 [1] [µM]	GI50 [3] [µM]	GI50 [5] [µM]	GI50 [7] [µM]	GI50 [9] [µM]	TGI [9] [µM]	GI50 [8] [µM]	TGI [10] [µM]	GI50 [2] [µM]
O=C1CC(Cl)c2c(Cl)sc(Cl)c21 (stereo unspecified)	13.3	7.13	> 25.7	5.94	9.32	8.32	> 22	4.66	–	–	–	–	–	–	–	–	–
COc1ccc(/C=C/C(c2cc(OC)c(OC)c(OC)c2)n2cncn2)cc1O (stereo unspecified)	37.1	–	> 100	–	> 100	–	> 100	> 100	0.0712	3.02	3.47	> 100	0.0506	56.4	0.0476	–	–
CC1CN=C(N(C)C(=O)Nc2ccc(Cl)c(Cl)c2)S1 (stereo unspecified)	–	> 100	> 100	> 100	> 100	52.6	> 100	–	–	–	–	–	–	> 100	–	–	–
CC(CN(C)C)C(=O)/C=C/c1ccc(Cl)c(Cl)c1 (stereo unspecified)	4.45	> 100	3.29	6.03	5.11	–	> 100	3.69	–	–	–	–	–	2.51	–	40.8	–
Cc1cnc2[nH]c(-c3cccc(Cl)c3)cc(=O)c2c1	> 100	> 57.8	1.46	–	> 100	0.0658	–	63.5	–	–	–	–	–	92.2	–	85.5	–
Clc1cccc(N=C/C=C/Nc2cccc(Cl)c2)c1	33.2	96.2	29.4	26.8	54	34.2	–	–	–	–	–	–	–	30.3	–	52.5	–
c1cn[nH]c1	–	–	–	> 10	> 10	> 10	> 10	> 10	–	–	–	–	–	> 10	–	> 10	–
C=CCc1cccc2cc(C(=O)Nc3nc(C45CC6CC(CC(C6)C4)C5)cs3)c(=O)oc12	> 100	> 100	62.1	> 100	59.2	> 100	–	–	–	–	–	–	–	41.9	–	22.5	–
C/C(=C/c1c(C)[nH]c(=O)[nH]c1=O)C(=O)O	–	–	–	–	> 1380	> 1380	–	> 1380	–	–	–	–	–	> 1370	–	> 1380	–
Cc1nn(-c2ccccc2)c2c1N=C(C(=O)O)CC(c1ccccc1)=N2	> 10	> 10	> 10	> 10	> 10	> 10	> 10	> 10	–	–	–	–	–	> 10	–	–	–
CCCCNCC(O)c1cc(-c2ccc(C(F)(F)F)cc2)nc(-c2ccc(C(F)(F)F)cc2)c1 (stereo unspecified)	–	3.65	–	–	–	–	–	3.67	–	–	–	–	1.73	3.39	1.89	–	2.02
CC(=O)C(C(=O)C(C)(C)C)C(=O)C(C)(C)C	> 100	> 100	> 100	> 100	–	> 100	> 100	> 100	–	–	–	–	–	> 100	–	> 100	–

Reference: PubChem BioAssay (NCI)
